Assay results from ChEMBL document CHEMBL2203080, “Synthesis and biological evaluation of colchicine C-ring analogues tethered with aliphatic linkers suitable for prodrug derivatisation” (Bioorg Med Chem Lett, 2012).

Columns and labels:
[1] = system: HeLa; assay: Resistance factor, ratio of IC50 for human HeLa cells harboring class 3 beta tubulin mutant to IC50 for human HeLa cells; format: functional
[2] = system: HeLa; assay: Cytotoxicity against human HeLa cells harboring class 3 beta tubulin mutant assessed as growth inhibition; format: functional, cell-based
[3] = system: HeLa; assay: Cytotoxicity against human HeLa cells assessed as growth inhibition; format: functional, cell-based
[4] = system: A2780; assay: Resistance factor, ratio of IC50 for multidrug-resistant human A2780AD cells overexpressing p-gp to IC50 for human A2780 cells; format: functional
[5] = Cytotoxicity against multidrug-resistant human A2780AD cells overexpressing p-gp assessed as growth inhibition; format: functional, cell-based; conditions: A2780 ADR
[6] = system: A2780; assay: Cytotoxicity against human A2780 cells assessed as growth inhibition; format: functional, cell-based
[7] = system: DLD-1; assay: Cytotoxicity against human DLD1 cells assessed as growth inhibition; format: functional, cell-based

Compound | Ratio IC50 [1] | IC50 [2] | IC50 [3] | Ratio IC50 [4] | IC50 [5] | IC50 [6] | IC50 [7]
COc1cc2c(c(OC)c1OC)-c1ccc(NCCO)c(=O)cc1[C@@H](NC(C)=O)CC2 | 0.85 | 164 nM | 192 nM | 3.3 | 241 nM | 71.1 nM | 69.2 nM
COc1cc2c(c(OC)c1OC)-c1ccc(NCCN(C)C(=O)OC(C)(C)C)c(=O)cc1[C@@H](NC(C)=O)CC2 |  |  |  |  |  |  | > 10000 nM
CC(=O)O[C@H]1C(=O)[C@@]2(C)[C@H]([C@H](OC(=O)c3ccccc3)[C@]3(O)C[C@H](OC(=O)[C@H](O)[C@@H](NC(=O)c4ccccc4)c4ccccc4)C(C)=C1C3(C)C)[C@]1(OC(C)=O)CO[C@@H]1C[C@@H]2O [PACLITAXEL] |  | 11.2 nM |  |  | > 1000 nM | 1100 nM | 
COc1cc2c(c(OC)c1OC)-c1ccc(NCCCCCCN3CCCC(O)C3)c(=O)cc1[C@@H](NC(C)=O)CC2 (mixture of isomers) |  |  |  |  |  |  | > 10000 nM
COc1cc2c(c(OC)c1OC)-c1ccc(OC)c(=O)cc1[C@@H](NC(C)=O)CC2 [COLCHICINE] | 1.2 | 9.7 nM | 8.2 nM | 2.5 | 16.8 nM | 6.7 nM | 45.5 nM
COc1cc2c(c(OC)c1OC)-c1ccc(NCCN)c(=O)cc1[C@@H](NC(C)=O)CC2 |  |  |  |  |  |  | 900 nM
COc1cc2c(c(OC)c1OC)-c1ccc(NCCN3CCC[C@H]3CO)c(=O)cc1[C@@H](NC(C)=O)CC2 |  |  |  |  |  |  | > 10000 nM
COc1cc2c(c(OC)c1OC)-c1ccc(NCCCCCCN)c(=O)cc1[C@@H](NC(C)=O)CC2 |  |  |  |  |  |  | > 10000 nM
CNCCNc1ccc2c(cc1=O)[C@@H](NC(C)=O)CCc1cc(OC)c(OC)c(OC)c1-2 | 0.95 | 554 nM | 586 nM | 1.6 | 784 nM | 502 nM | 130 nM
COc1cc2c(c(OC)c1OC)-c1ccc(NCCN3CCC[C@@H]3CO)c(=O)cc1[C@@H](NC(C)=O)CC2 |  |  |  |  |  |  | > 10000 nM
COc1cc2c(c(OC)c1OC)-c1ccc(NCCN3CCCC(O)C3)c(=O)cc1[C@@H](NC(C)=O)CC2 (mixture of isomers) |  |  |  |  |  |  | 8100 nM
